Assay results as given in US10124004B2, “Pyrido[3,4-d]pyrimidine derivative and pharmaceutically acceptable salt thereof” (Teijin Pharma Limited, priority 2015, dated 2018).

Columns and labels:
CDK4/cyclin D3 = molecular target: T1, CDK4/cyclin D3 (Homo sapiens, UniProt P11802); test: Human CDK4/cyclin D3 inhibitory activity (QS S Assist CDK4/Cyclin D3_FP Kit, IMAP fluorescence polarization); assay type: biochemical; details: 50% inhibitory concentration against CDK4/cyclin D3, given as class symbol
T1 construct: purchased Carna Biosciences, Inc. QS S Assist CDK4/Cyclin D3_FP Kit
Procedure, shortened: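 IMAP fluorescence polarization kit: CDK4/cyclin D3 at 12.5-25 ng/well with kit ATP/substrate/metal mix in 20 mM HEPES pH 7.4, 0.01% Tween20, 2 mM DTT, 45 min at room temperature. FP read at 485/535 nm after 30 min binding; IC50 from dose-response fit of percent inhibition versus enzyme and no-enzyme controls.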

CDK2/cyclin A2 = molecular target: T2, CDK2/cyclin A2 (Homo sapiens, UniProt P24941); test: Human CDK2/cyclin A2 inhibitory activity (QS S Assist CDK2/Cyclin A2_FP Kit, IMAP fluorescence polarization); assay type: biochemical; details: 50% inhibitory concentration against CDK2/cyclin A2, given as class symbol
T2 construct: purchased Carna Biosciences, Inc. QS S Assist CDK2/Cyclin A2_FP Kit
Procedure, shortened: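 Kinase activity read as fluorescence polarization (485/535 nm) after phosphorylated fluorescent substrate binds IMAP reagent (30 min, RT, dark). Enzyme (2.5 ng/well) reacted 60 min at RT with ATP/substrate/metal in HEPES pH 7.4 buffer with Tween 20 and DTT; no-enzyme wells define 0% activity; IC50 by curve fit.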

T1 sequence (P11802 whole entry): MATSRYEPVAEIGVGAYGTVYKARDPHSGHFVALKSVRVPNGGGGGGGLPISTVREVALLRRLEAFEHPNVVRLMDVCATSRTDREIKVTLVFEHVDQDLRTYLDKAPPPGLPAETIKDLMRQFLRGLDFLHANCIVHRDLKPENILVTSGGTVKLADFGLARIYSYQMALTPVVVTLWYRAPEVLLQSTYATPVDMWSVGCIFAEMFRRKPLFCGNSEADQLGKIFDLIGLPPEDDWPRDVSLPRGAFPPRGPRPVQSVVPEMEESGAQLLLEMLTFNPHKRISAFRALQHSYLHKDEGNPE
T1 sequence (P30281 whole entry partner): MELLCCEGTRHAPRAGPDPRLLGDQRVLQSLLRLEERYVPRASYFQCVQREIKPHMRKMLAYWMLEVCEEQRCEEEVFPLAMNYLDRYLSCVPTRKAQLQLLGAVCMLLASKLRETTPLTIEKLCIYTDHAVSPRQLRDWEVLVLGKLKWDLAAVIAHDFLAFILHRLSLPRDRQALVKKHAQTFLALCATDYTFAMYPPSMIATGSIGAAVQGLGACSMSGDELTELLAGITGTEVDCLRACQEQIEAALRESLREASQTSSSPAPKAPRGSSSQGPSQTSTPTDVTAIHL

IC50 (CDK4/cyclin D3) [nM]	IC50 (CDK2/cyclin A2) [nM]	SMILES
< 10	≥ 100	C[C@@H](O)c1cc2cnc(Nc3ccc(N4CCN(C)CC4)nn3)nc2c(NC2CCC(C)(C)OC2)n1 (stereo partly drawn) [Compound 639]
< 10	≥ 100	C[C@@H](O)c1cc2cnc(Nc3ccc(N4CCN(C)CC4)nn3)nc2c(N[C@H]2CCCOC2)n1 [Compound 640]
< 10	≥ 100	CC(C)Nc1nc([C@@H](C)O)cc2cnc(Nc3ccc(N4CCN5CCCC5C4=O)cn3)nc12 (stereo partly drawn) [Compound 642]
< 10	≥ 100	CC(C)Nc1nc([C@@H](C)O)cc2cnc(Nc3ccc(CN4CCN(C(C)CO)CC4)cn3)nc12 (stereo partly drawn) [Compound 644]
< 10	≥ 100	CC(C)Nc1nc([C@@H](C)O)cc2cnc(Nc3ccc(N4CCC5(CC4)CNC(=O)C5)nn3)nc12 [Compound 648]
< 10	≥ 100	C[C@@H](O)c1cc2cnc(Nc3ccc4c(n3)CCN(C(=O)CO)C4)nc2c(N[C@H]2CC[C@H](C)CC2)n1 [Compound 652]
< 10	≥ 100	CC(C)Nc1nc([C@@H](C)O)cc2cnc(Nc3ccc4c(n3)CN(C(=O)CO)C4)nc12 [Compound 656]
< 10	≥ 100	CC(C)Nc1nc([C@@H](C)O)cc2cnc(Nc3ccc(N4CCN(C(C)(C)C(=O)O)CC4)nn3)nc12 [Compound 657]
< 10	≥ 100	C[C@@H](O)c1cc2cnc(Nc3ccc(N4CCNCC4=O)cn3)nc2c(NC2CCC(C)(C)CC2)n1 [Compound 658]
< 10	≥ 100	CC(C)Nc1nc([C@@H](C)O)cc2cnc(Nc3ccc(N4CC[C@@H](O)C4)nn3)nc12 [Compound 661]
< 10	≥ 100	CC(C)Nc1nc([C@@H](C)O)cc2cnc(Nc3ccc(N4CCNCC(C)C4=O)cn3)nc12 (stereo partly drawn) [Compound 665]
< 10	≥ 100	CC(C)Nc1nc([C@@H](C)O)cc2cnc(Nc3ccc(N4CC(C)(CO)C4)nn3)nc12 [Compound 668]
< 10	≥ 100	CC(C)Nc1nc([C@@H](C)O)cc2cnc(Nc3ccc(CN4CCN(C[C@H](C)O)CC4)cn3)nc12 [Compound 674]
< 10	≥ 100	CC(C)Nc1nc([C@@H](C)O)cc2cnc(Nc3ccc(N4CCN(C[C@H](C)O)CC4)nn3)nc12 [Compound 676, (S)-1-(4-(6-((6-((R)-1-hydroxyethyl)-8-(isopropylamino)pyrido[3,4-d]pyrimidin-2-yl)amino)pyridazin-3-yl)piperazin-1-yl)propan-2-ol]
10 to 100	≥ 100	CO[C@H](C)c1cc2cnc(Nc3ccc(N4CCN(C(C)(C)C(=O)O)CC4)nn3)nc2c(NC(C)C)n1 [Compound 678, (R)-2-(4-(6-((8-(isopropylamino)-6-(1-methoxyethyl)pyrido[3,4-d]pyrimidin-2-yl)amino)pyridazin-3-yl)piperazin-1-yl)-2-methylpropanoic acid]
10 to 100	≥ 100	CO[C@H](C)c1cc2cnc(Nc3ccc(CN4CCN(C(C)(C)C(=O)O)CC4)cn3)nc2c(NC(C)C)n1 [Compound 679]
10 to 100	≥ 100	CO[C@H](C)c1cc2cnc(Nc3ccc(CN4CCN(C5COC5)CC4)cn3)nc2c(NC(C)C)n1 [Compound 681]

More lines, now with the values behind:

SMILES	IC50 (CDK4/cyclin D3) [nM]	IC50 (CDK2/cyclin A2) [nM]
CC(O)CN1CCN(Cc2ccc(Nc3ncc4cc([C@@H](C)O)nc(NC(C)C)c4n3)nc2)CC1 (stereo partly drawn) [Compound 638]	< 10	≥ 100
COC1CCC(Nc2nc([C@@H](C)O)cc3cnc(Nc4ccc(N5CCN(C)CC5)nn4)nc23)CC1 (stereo partly drawn) [Compound 641]	< 10	≥ 100
CC(C)Nc1nc([C@@H](C)O)cc2cnc(Nc3ccc(N4CCN(CC(C)(C)O)CCC4=O)cn3)nc12 [Compound 643]	< 10	≥ 100
CC(O)c1cc2cnc(Nc3ccc(OC4CCNCC4F)cn3)nc2c(NC2CCCOC2)n1 (stereo not drawn) [Compound 645]	< 10	≥ 100
COC1CCC(Nc2nc(C(C)O)cc3cnc(Nc4ccc(OC5CCNCC5F)cn4)nc23)CC1 (stereo not drawn) [Compound 646]	< 10	≥ 100
CC(O)c1cc2cnc(Nc3ccc(OC4CCNCC4F)cn3)nc2c(NC2CCC(C)(C)OC2)n1 (stereo not drawn) [Compound 647]	< 10	≥ 100
C[C@@H](O)c1cc2cnc(Nc3ccc(N4CCNCC4=O)cn3)nc2c(NC2CCC(C)(C)OC2)n1 (stereo partly drawn) [Compound 649]	< 10	≥ 100
COC1CCC(Nc2nc([C@@H](C)O)cc3cnc(Nc4ccc(N5CCNCC5=O)cn4)nc23)CC1 (stereo partly drawn) [Compound 650]	< 10	≥ 100
CC(C)Nc1nc([C@@H](C)O)cc2cnc(Nc3ccc4c(n3)CCN(C(=O)CO)C4)nc12 [Compound 651]	< 10	≥ 100
C[C@@H](O)c1cc2cnc(Nc3ccc4c(n3)CCN(C(=O)CO)C4)nc2c(N[C@H]2CC[C@@H](C)CC2)n1 [Compound 653]	< 10	≥ 100
C[C@@H](O)c1cc2cnc(Nc3ccc4c(n3)CCN(C(=O)CO)C4)nc2c(NC2CCC(C)(C)CC2)n1 [Compound 654]	< 10	≥ 100
CC(C)Nc1nc([C@@H](C)O)cc2cnc(Nc3cc4c(cn3)CN(C(=O)CO)CC4)nc12 [Compound 655]	10 to 100	≥ 100
CC(C)Nc1nc([C@@H](C)O)cc2cnc(Nc3ccc(N4CCN(C(=O)CO)CC4)nn3)nc12 [Compound 659]	< 10	≥ 100
CC(C)Nc1nc([C@@H](C)O)cc2cnc(Nc3ccc(N4CCC(CO)CC4)nn3)nc12 [Compound 660]	< 10	≥ 100
CC(C)Nc1nc([C@@H](C)O)cc2cnc(Nc3ccc(N4CC[C@H](O)C4)nn3)nc12 [Compound 662]	< 10	≥ 100
CC(C)Nc1nc([C@@H](C)O)cc2cnc(Nc3ccc(N4CCC(CO)C4)nn3)nc12 (stereo partly drawn) [Compound 663]	< 10	≥ 100
CC(C)Nc1nc([C@@H](C)O)cc2cnc(Nc3ccc(N4CCC(O)C(C)(C)C4)nn3)nc12 (stereo partly drawn) [Compound 664]	< 10	≥ 100
CC(C)Nc1nc([C@@H](C)O)cc2cnc(Nc3ccc(N4CC(O)C4)nn3)nc12 [Compound 666]	< 10	≥ 100
CC(C)Nc1nc([C@@H](C)O)cc2cnc(Nc3ccc(N4CC(CO)C4)nn3)nc12 [Compound 667]	< 10	≥ 100
CC(C)Nc1nc([C@@H](C)O)cc2cnc(Nc3ccc(CC(=O)N4CCNC5(CC5)C4)cn3)nc12 [Compound 669]	10 to 100	≥ 100
CC(C)Nc1nc(C2CCCO2)cc2cnc(Nc3ccc(N4CCNCC4=O)cn3)nc12 (stereo not drawn) [Compound 670]	≥ 100	≥ 100
CC(C)Nc1nc(C(C)O)cc2cnc(Nc3ccc(OC4CNCC4F)cn3)nc12 (stereo not drawn) [Compound 673]	< 10	≥ 100
CC(C)Nc1nc([C@@H](C)O)cc2cnc(Nc3ccc(CN4CCN(C[C@@H](C)O)CC4)cn3)nc12 [Compound 675]	< 10	≥ 100
CC(C)Nc1nc([C@@H](C)O)cc2cnc(Nc3ccc(N4CCN(C[C@@H](C)O)CC4)nn3)nc12 [Compound 677]	< 10	≥ 100
CO[C@H](C)c1cc2cnc(Nc3ccc(N4CCN(C5COC5)CC4)nn3)nc2c(NC(C)C)n1 [Compound 680]	10 to 100	≥ 100
